Laboratory results: PubChem BioAssay AID449764 (Southern Research Specialized Biocontainment Screening …, 2010)

System: Mycobacterium tuberculosis H37Rv growth inhibition, no glycerol
Test: Mycobacterium tuberculosis H37Rv growth inhibition, no glycerol, confirmatory dose response (AID 449764);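 note: growth read after 7 days of incubation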
Conditions: for IC90: measured here: IC90 growth inhibition

| Structure (SMILES) | IC50 | IC90 |
| --- | --- | --- |
| Cc1ccc2cc(C)c(N3CCN(c4ccccn4)CC3)nc2c1 | 43.1 µM | 46.7 µM |
| COc1ccc(NC(=O)CSC2CCCCC2)cc1 | 76.3 µM | > 100 µM |
| CCOC(=O)c1c(CC(C)C)csc1NC(=O)CCl | 2.66 µM | 11.2 µM |
| CCCCNC(=S)N/N=C/c1cccc(OCC)c1O | 10.8 µM | 11.9 µM |
| CC(=O)O[C@H]1C[C@@]2(C)[C@@H](C[C@@H](O)[C@H]3[C@@]4(C)CC[C@@H](O)[C@@H](C)[C@@H]4CC[C@@]32C)/C1=C(\CCC=C(C)C)C(=O)O | 2.94 µM | 6.55 µM |
| Cc1[nH]n(-c2ccccc2)c(=O)c1C(C[N+](=O)[O-])c1ccccc1Cl (stereo not given) | 23.4 µM | 27.1 µM |
| Cc1cnc(NC(=O)NCC2CCCC(CNC(=O)Nc3ncc(C)s3)C2)s1 (stereo not given) | 36.2 µM | > 50 µM |
| Cc1ccc2nc(-c3ccncc3)cc(-c3ccccc3)c2c1 | 43.8 µM | 48.6 µM |
| O=[N+]([O-])c1c(C(Cl)Cl)nn(-c2ccc(Cl)cc2)c1N1CCCCC1 | 21.2 µM | 23.3 µM |
| Cc1ccc(NCc2ccc(O)c3ncccc23)cc1C | 96.3 µM | > 100 µM |
| COC(=O)c1ccc(/C=C/c2c(-c3ccsc3)oc3ccc(N4CCOCC4)cc23)cc1 | 30.6 µM | 53.6 µM |
| Cc1ccc(OCc2cc(C(=O)N(C)Cc3cnc4ccccn34)no2)cc1C | 35.1 µM | > 100 µM |
| CCOC(=O)C1(CCOc2ccccc2)CCN(Cc2cccc(-n3cccn3)c2)CC1 | 28.1 µM | 34.5 µM |
| Nc1ccc(Oc2ccc(F)cc2)nc1 | 70.1 µM | 85.7 µM |
| O=C(CSc1nc2ccccc2nc1N1CCOCC1)N1CCN(c2ccccc2)CC1 | 11.8 µM | 14 µM |
| O=C(OCc1ccccc1F)c1cnc(Cl)c(Cl)c1 | 22 µM | 55 µM |
| O=C(COC(=O)c1cccs1)c1ccccc1 | 45.8 µM | > 100 µM |
| COc1cc2c(cc1OC)CN(CCC(=O)c1ccc(Br)cc1)CC2 | 23.4 µM | 26.7 µM |
| CCCCC(CC)CN=C(N)NC(N)=NCCCCCCN=C(N)NC(N)=NCC(CC)CCCC (stereo not given) | 5.37 µM | 5.97 µM |
| CCCc1ccc(C2=Nn3c(nnc3C(C)C)SC2)cc1 | 29.6 µM | 51.1 µM |
| NC(=O)N=Nc1c2[nH]c3ccccc3nc-2c2ccccc12 | 5.96 µM | 8.44 µM |
| S=C(NCCN1CCOCC1)N/N=C/c1cccs1 | 6.31 µM | 7.16 µM |

| Structure (SMILES) | IC50 | IC90 |
| --- | --- | --- |
| Cc1ccc(S(=O)(=O)/N=C(\CCl)N2CCOCC2)cc1 | 18.6 µM | 27.5 µM |
| N/C(=N\OC(=O)Nc1ccc(Cl)c(Cl)c1)c1ncc(C(F)(F)F)cc1Cl | 28.9 µM | 35.7 µM |
| NC(=O)c1ccc(N=Cc2ccc([N+](=O)[O-])s2)cc1 | 16.9 µM | 19.8 µM |
| O=C(c1cc2cc(Cl)ccc2[nH]1)N1CCN(Cc2ccc3c(c2)OCO3)CC1 | 24.2 µM | > 25 µM |
| CC(C)NC(=O)c1onc(CSc2ccc(F)c(F)c2)c1C(=O)O | 17.8 µM | 22.9 µM |
| Cc1ccc(Nc2nc(N)nc(CN3CCc4ccccc4C3)n2)cc1 | 5.61 µM | 18.6 µM |
| CCOc1cccc(C=Nc2cc(C)cc(C)c2O)c1O | 31.2 µM | 41.4 µM |
| Cn1c(=O)c(C(=O)NNC(=O)c2cccc(Cl)c2)c(O)c2ccccc21 | 2.78 µM | 3.14 µM |
| Cc1ccc(CN2C3CCCC2CC(NC(=S)NCc2ccccc2)C3)cc1 (stereo not given) | 41.1 µM | 75.6 µM |
| COc1ccc(-n2c(-c3ccc(Cl)cc3)c[n+]3c2CCc2ccccc2-3)cc1 | 19.4 µM | 26.8 µM |
| O=C(OCn1ncc(Br)c(Br)c1=O)c1ccc(F)cc1 | 2.9 µM | 4.77 µM |
| CN1CCN(c2cc(-c3ccccc3)nc3cc(-c4ccc(F)cc4)nn23)CC1 | 16.4 µM | 42.2 µM |
| CC(C)(C)C1CCc2sc(-c3nnc(CCl)o3)cc2C1 (stereo not given) | 5.74 µM | 19.5 µM |
| Cc1cc2nc(C3CCN(CC4COc5ccccc5O4)CC3)[nH]c2cc1C (stereo not given) | 17.8 µM | 28.7 µM |
| CCCSc1nnc(Sc2nnnn2-c2ccccc2)s1 | 22.5 µM | 38.8 µM |
| CN(c1ccccc1)S(=O)(=O)c1cccc(C(=O)NCc2ccccc2CN2CCCC2)c1 | 63.2 µM | 77.9 µM |
| CCOC(=O)C1CCCc2c1[nH]c1c(C(N)=O)cccc21 (stereo not given) | 8.59 µM | 17.3 µM |
| O=C(NCCCN1CCOCC1)c1cc2c([nH]c3ccccc32)c(-c2cccc(Br)c2)n1 | 18.6 µM | 24.3 µM |
| CC/C(=C(\c1ccc(O)cc1)c1ccc(OCCN(C)C)cc1)c1ccccc1 | 26.5 µM | 45 µM |
| CC(C)NC(=S)N/N=C/c1cc(Br)ccc1O | 29.5 µM | > 100 µM |
| CCC1CSC(Nc2ccc(C(=O)/C=C/c3cccc(C)c3)cc2)=N1 (stereo not given) | 20.5 µM | 35.9 µM |
| CNC(=O)COC(=O)c1ccc(-c2nc3ccccc3s2)s1 | 9.68 µM | 16.3 µM |

| Structure (SMILES) | IC50 | IC90 |
| --- | --- | --- |
| COc1ccc(-c2ccc(OC)c([C@H]3[C@@H]4C=CCC[C@@]4(C)C(=O)N3Cc3ccccc3)c2)cc1OC | 89.5 µM | > 100 µM |
| C=CCc1c(C)nc(SC)nc1Nc1ccc(C(C)=O)cc1 | 34.6 µM | 52.4 µM |
| CCCCCCCNC1=CC(=O)CC(c2ccccc2)C1 (stereo not given) | 39.7 µM | 61.3 µM |
| COC(=O)C(CCSC)NC(=O)c1cn(-c2ccc(OC)cc2)c(=O)c2ccccc12 (stereo not given) | 24.3 µM | > 25 µM |
| Cc1ccc(C)c(N2CCN(C(=O)c3ccc4nc(N5CCOCC5)sc4c3)CC2)c1 | 35.2 µM | 47.6 µM |
| O=C(C1CCCN(c2ncnc3c2nc2n3CCCCC2)C1)N1CCN(c2ccc(Cl)cc2)CC1 (stereo not given) | 38.1 µM | 51 µM |
| C=CCOc1ccc(C2C(C#N)=C(N)N(Nc3ccccc3)C3=C2C(=O)CC(C)(C)C3)cc1OC (stereo not given) | 41.3 µM | > 100 µM |
| COc1ccc(C2CC(c3cccs3)=Nc3ccccc3S2)cc1 (stereo not given) | 41.9 µM | 50.9 µM |
| CN1CCc2cc3c(c4c2C1Cc1ccccc1-4)OCO3 (stereo not given) | 2.35 µM | 3.03 µM |
| CCOc1ccc(N2C=Nc3ccc(OCC)cc3C2)cc1 | 79.2 µM | > 100 µM |
| Cc1nc2sccn2c(=O)c1CCN1CCC(=C(c2ccccc2)c2ccc(F)cc2)CC1 | 35.8 µM | 51.2 µM |
| CCN(CC)Cc1nc2c(c(=O)[nH]1)C(CC)(CC)Cc1ccccc1-2 | 12.7 µM | 21.1 µM |
| CCn1c(C)nc2cc(C(=O)OC(C(F)(F)C(F)F)C(F)(F)C(F)F)ccc21 | 21.2 µM | 25.8 µM |
| Brc1ccc2c(c1)C(OC1CN3CCC1CC3)c1ccccc1CS2 (stereo not given) | 26.3 µM | 36.4 µM |
| COc1cc(C(=O)/C=C/c2cccnc2)c([N+](=O)[O-])cc1OC | 17.5 µM | 26.2 µM |
| O=C(NC1CCCC(C(F)(F)F)C1)c1ccc([N+](=O)[O-])o1 (stereo not given) | 17.9 µM | 28.3 µM |
| Oc1[nH]c2ccccc2c1N=NC(=S)N1CCOCC1 | 22.9 µM | 24.3 µM |
| CC(=O)n1cc(/C=C2/N=C(c3ccccc3)OC2=O)c2ccccc21 | 43.4 µM | > 100 µM |
| CCCCn1nc(C(=O)Nc2ccccc2N2CCCC2)c2ccccc2c1=O | 81 µM | > 100 µM |
| CC1(C)C2CCC1(C)C(OCC[N+](C)(C)CC(=O)OC1CCCCC1)C2 (stereo not given) | 12 µM | 13.1 µM |
| COc1ccccc1/C=C/C(=O)Nc1ccc(S(=O)(=O)Nc2cc(C)on2)cc1 | 28.5 µM | 57.1 µM |
| CCN1C(=NCCc2ccc(Br)cc2)N[C@@H](c2ccccc2)[C@H](C(=O)OC)[C@H]1C | 22.4 µM | 25.8 µM |

| Structure (SMILES) | IC50 | IC90 |
| --- | --- | --- |
| Cc1cccc(/C=C/C(=O)c2ccc([N+](=O)[O-])o2)c1 | < 0.2 µM | < 0.2 µM |
| N#CC(C#N)=c1ccc2c(c1)N1C3=C(CCCC3)CC3CCCCC31N=2 (stereo not given) | 12.5 µM | 13.5 µM |
| Cc1nc(-c2ccc(Cl)cc2)sc1C1(C)CC(c2ccc(C#N)cc2)=NO1 (stereo not given) | 43.6 µM | > 100 µM |
| COc1ccc(CNC[C@@H](CCCCN(C)Cc2ccc(OC)cc2)N2C[C@H](c3ccccc3)N(CCc3ccc(Cl)c(Cl)c3)C(=O)C2=O)cc1 | 10.5 µM | 14 µM |
| Cn1cnc([N+](=O)[O-])c1Sc1ccc(Br)cc1 | 19.6 µM | 26.1 µM |
| Cn1c(/C=N/Nc2nc3ccccc3[nH]2)nc2ccccc21 | 61.8 µM | 79.8 µM |
| COc1ccc(CNc2ncnc3c2[nH]c2cc(OC)c(OC)cc23)cc1 | 80.7 µM | 89.5 µM |
| COc1ccc(NS(=O)(=O)c2ccc3nc(COc4cccc5ccccc45)[nH]c3c2)cc1 | 62.3 µM | > 100 µM |
| O=C(Oc1ccc(-c2cn3c(n2)SCC3)cc1)c1ccccc1 | 73.2 µM | > 100 µM |
| O=C(Nc1ccc(OC(F)(F)F)cc1)c1ccc2c(c1)no[n+]2[O-] | 0.24 µM | 0.32 µM |
| CCCCn1cnc2c(c(-c3ccccc3)c(-c3ccccc3)n2Cc2ccco2)c1=N | 94.8 µM | > 100 µM |
| Cc1ccc(C)c(NC(CC(=O)c2ccccc2)C(=O)OCC(=O)c2cccs2)c1 (stereo not given) | 11.1 µM | 11.7 µM |
| COc1ccc(C[C@H]2CN3C(=NC[C@H]3Cc3ccccc3)N2CCNC(=O)CCC2CCCCC2)cc1 | 22.4 µM | 24.3 µM |
| CSc1ccc(NC(=O)Nc2cccn(Cc3ccccc3)c2=O)cc1 | – | > 100 µM |
| COc1ccc(-c2cn(Cc3ccc(C(=O)NCc4ccc(C)cc4)cc3)c(C(C)N)n2)cc1 (stereo not given) | 66 µM | 82.4 µM |
| N#CC1=C(c2ccccc2)/C(=C/c2ccccc2)OC1=O | 11.6 µM | 23.2 µM |
| Cc1ccc(C(c2nnnn2Cc2cccs2)N2CCN(Cc3ccc4c(c3)OCO4)CC2)cc1 (stereo not given) | 24.3 µM | 38 µM |
| O=C1Nc2ccc(Br)cc2/C1=C/C(=O)c1ccc2c(c1)OCO2 | 18.1 µM | 23.7 µM |
| COc1ccc(CN2CCCC(C(=O)c3ccc(SC)cc3)C2)cc1Cn1cccn1 (stereo not given) | 25.2 µM | 28.2 µM |
| COc1cc(/C=C(\C#N)c2nc3c(s2)CC(C)CC3)ccc1O (stereo not given) | 45.5 µM | 51.4 µM |
| COC(=O)c1ccc(C(=O)OC)c(NC(=O)CSc2cccc[n+]2[O-])c1 | 5.72 µM | 6.25 µM |
| COc1ccc(SC[C@H](Cc2ccccc2)N2CCN(CCc3ccccc3)CCC2=O)cc1 | 40.6 µM | 51.4 µM |
